Results reported in patent publication US6521252B1, “Transfecting compounds which are sensitive to reducing conditions, pharmaceutical compositions containing them and their applications” (Aventis Pharma S.A., priority 1998, dated 2003).

Columns and labels:
[1] = test system: HepG2 cells; experiment: In vitro transfection efficiency, luciferase expression, HepG2 cells; type: cell-based; settings: for inhibition of transfection due to the presence of serum proteins (in words): presence vs absence of serum
Method: (§1) The plasmid used is described in Patent WO 97/10343. This construct pCOR_pXL2774 comprises the gene encoding luciferase under the human cytomegalovirus very early gene promoter [hCMV-IE].
(§2) The nucleic acid solutions are diluted to 20 μg/ml in physiological saline (0.15 M NaCl).
(§3) The products described in the invention are dissolved in water at a concentration varying from 40 to 160 μmol and mixed volume for volume with the DNA solution. The final saline concentration is 75 mmol.

[2] = test system: HepG2 cells; experiment: Toxicity of cytofectant mixtures, protein concentrations in cell lysates, HepG2 cells; settings: for toxicity (in words): up to 160 μM of cationic lipid
Method: (§4) The cells are cultured under appropriate conditions in 24-well microplates (2 cm^2/well) and are transfected while they are in the exponential growth phase and at 50-70% confluence.
(§5) The cells are washed with twice 0.5 cm^3 of medium free of serum proteins and grown again either in serum-free medium (transfection in the absence of serum), or in complete medium (transfection in the presence of serum) 0.05 cm^3 of cytofectant mixture (0.5 μg DNA/well) are added to the cells (3 wells/condition DNA vector). When the cells are transfected in the absence of serum, the growth medium is supplemented 2 hours after transfection with the appropriate quantity of serum.
(§6) The toxicity of the cytofectant mixtures is estimated by a measurement of the protein concentrations in the cell lysates.

[3] = test system: HeLa cells; experiment: In vitro transfection efficiency, luciferase expression, HeLa cells; type: cell-based; settings: for inhibition of transfection due to the presence of serum proteins (in words): presence vs absence of serum
Method: as §1, §2, §3

[4] = test system: HeLa cells; experiment: Toxicity of cytofectant mixtures, protein concentrations in cell lysates, HeLa cells; type: cell-based; settings: up to 160 μM of cationic lipid
Method: as §4, §5, §6

[5] = Detergent action: solubilization of liposomes EPC/EPA (10:1) measured by turbidity; settings: turbidity by spectrophotometer; compared with Triton X-100 (100% solubilization)
Description: For that, an in vitro model is used which represents the biological membranes, namely liposomes EPC/EPA (egg phosphatidylcholine/egg phosphatidic acid, 10:1).
These liposomes are formed by dissolving the various constituents in chloroform, and then evaporating the said chloroform with the aid of a rotary evaporator. The lipid film obtained is redispersed in water, and then the liposomes are formed by sonication and heating.
The evaluation of the detergent action of the product added to the liposomes is made by measuring the turbidity with the aid of a spectrophotometer.

[6] = HepG2 cells, absence of serum proteins
[7] = HeLa cells, absence of serum proteins

Molecule: CCCCCCCCCCCCCCCCCCNC(=O)C(CSSCC(NC(=O)CNCCCNCCCCNCCCN)C(=O)NCCCCCCCCCCCCCCCCCC)NC(=O)CNCCCNCCCCNCCCN (stereo not shown) [compound (VI), [NH2(CH2)3NH (CH2)4NH (CH2)3NHCH2CO—CyNH (CH2)17CH3]2]
- transgene expression in comparison with reference cationic lipid REF ([1]; HepG2 cells, absence of serum (FIG. 3)): 4 times
- survival ([2]; transfection in the absence of serum proteins, cationic lipid dose 160 μM): 80%

Molecule: NH2 (CH2)3NH(CH2)4NH(CH)3NHCH2COCys-[S—S—(CH2)17CH3]—NH (CH2)17CH3 [compound (II)]
- expression of the transgene compared with reference cationic lipid REF [1, 6]: up to 3 fold
- improvement of transfection compared with reference cationic lipid REF ([1]; HepG2 cells, presence of serum proteins): up to 40 fold
- inhibition of transfection due to the presence of serum proteins (in words) ([1]; HepG2 cells): no inhibitory effect
- toxicity (in words) [2]: no significant toxicity

Molecule: NH2(CH2)3NH(CH2)4NH(CH2)3NHCH2COCyS-[S—S-Cholesterol]—NH(CH2)17CH3 [compound (V)]
- gain in expression of the transgene, cholesterol instead of an alkyl chain (in words) ([1]; HepG2 cells (FIG. 9)): very significant gain
- inhibition of transfection due to the presence of serum proteins (in words) ([1]; HepG2 cells): no inhibition could be observed
- gain in expression of the transgene, cholesterol instead of an alkyl chain (in words) ([3]; HeLa cells (FIG. 9)): very significant gain
- inhibition of transfection due to the presence of serum proteins (in words) ([3]; HeLa cells): no inhibition could be observed
- toxicity (in words) [4]: no significant toxicity
- toxicity (in words) [2]: no significant toxicity

Molecule: NH2(CH2)3NH(CH2)4NH(CH2)3NHCH2COCys-[S—S—(CH2)4CH3]—N[(CH2)17CH3]2 [compound (I)]
- transfection results compared with reference cationic lipid REF (in words) [1, 6]: same order of magnitude
- inhibition of transfection due to the presence of serum proteins (in words) ([1]; HepG2 cells): no significant inhibition
- transfection results compared with reference cationic lipid REF (in words) [3, 7]: same order of magnitude
- inhibition of transfection due to the presence of serum proteins (in words) ([3]; HeLa cells): no significant inhibition
- toxicity (in words) [4]: no significant toxicity
- toxicity (in words) [2]: no significant toxicity

Molecule: NH2(CH2)3NH(CH2)4NH(CH2)3NHCH2COCys-[S—S—(CH2)11CH3]—N[(CH2)17CH3]2 [compound (IV)]
- expression of the transgene compared with reference cationic lipid REF [1, 6]: about 9 fold
- inhibition of transfection due to the presence of serum proteins (in words) ([1]; HepG2 cells): no significant inhibition
- expression of the transgene compared with reference cationic lipid REF [3, 7]: about 2 fold
- inhibition of transfection due to the presence of serum proteins (in words) ([3]; HeLa cells): no significant inhibition
- toxicity (in words) [4]: no significant toxicity
- toxicity (in words) [2]: no significant toxicity

Molecule: Triton X-100
- solubilization of the liposomes [5]: 100%
